Source: patent US5128330A, “Oxazinone substituted phosphines” (Biofor, Ltd., priority 1991, dated 1992)

System: carrageenan-induced hind paw edema
Test: Acute antiinflammatory activity, carrageenan-induced paw edema test
Assay type: in vivo, Male Sprague-Dawley rats
Settings: dosed 1 h before carrageenan, paw volume 3 h after carrageenan, rats
Protocol: Anti-Inflammatory: This activity was evaluated using a modification of the carrageenan-induced paw edema test described by C. A. Winter et al in Proc. Soc. […] This assay measures the ability of the test compound to antagonize local edema, a characteristic of the inflammatory response.
Acute antiinflammatory activity was evaluated using the carrageenan-inducedpaw edema test described by C. A. Winter, et al in Proc. Soc.
Male Sprague-Dawley rats were divided into groups of six rats each. […] One hour after dosing with the test compounds, the left hind paws were injected with a 0.1 ml carrageenan solution (1% in distilled water, sterilized) intraplantarly. Three hours after carrageenan injection the volume of the injected paws was redetermined. Group means were also determined and the drug effect was calculated as percent inhibition of the hind paw edema according to the following equation: [formula]

Compound	% Inhibition (percent inhibition of the hind paw edema) (100 mg (so in the source)) [%]	% Inhibition (percent inhibition of the hind paw edema) (100 mg/kg) [%]
CC(=O)Oc1ccccc1C(=O)O [Aspirin]	50	–
CN1OCCC([P+](c2ccccc2)(c2ccccc2)c2ccccc2)C1=O (centres unmarked) [Example 1, (dihydro-N-methyl-2H-1,2-oxazin-3(4H)-oxo-4-yl)triphenylphosphonium bromide]	–	62
